Test system: hepatic ischaemia-reperfusion injury in C57BL/6J mice
Test: Mouse model of hepatic ischaemia-reperfusion injury
Format: in vivo
Conditions: 50 mg/kg osmotic pump, 1 h ischaemia, 6 h reperfusion
Protocol: Mice (10–12 weeks-old) were anesthetised with isoflurane and subcutaneously implanted with Alzet® osmotic pump containing C105SR (50 mg/kg) or vehicle 24 h before the surgical procedure. The mice were anesthetised with isoflurane and subjected to partial hepatic ischaemia by clamping the hepatic artery and portal vein for 60 min, followed by 6 h of reperfusion induced by removal of the clamp. The sham-operated group underwent laparotomy without vascular occlusion.
Briefly, 70% of the liver was subjected to 1 h of ischaemia followed by 6 h of reperfusion, as recently described.[16] C105SR was administered using osmotic pumps at a dose of 50 mg/kg.
Mouse serum analysis. Blood was collected at 6 h of reperfusion. Alanine aminotransferase (ALT) and aspartate aminotransferase (AST) activities were measured on an automated analyzer in the Biochemistry Department of Henri Mondor Hospital.
Histological Analysis. Hematoxylin and eosin staining was performed on 4-μm thick formalin-fixed paraffin-embedded tissue sections. Slides were scanned at x20 magnification using a virtual slide scanning system (Axio scan7/ZEN slidescan). Necrosis areas were quantified with […]
TUNEL Assay. Terminal deoxynucleotidyl-transferase (TdT) dUTP Nick-End Labeling (TUNEL) was performed on formalin-fixed paraffin-embedded tissue sections using a commercial kit (Abcam, Cambridge, United Kingdom) following the manufacturer’s instructions. The number of TUNEL-positive cells were quantified using QuPath on slides scanned at x20 magnification using a virtual slide scanning system (Axio scan7/ZEN slidescan).
Caspase 3/7 activity assay. Caspase 3/7 activity was assessed using the commercially Caspase-Glo® 3/7 assay (Promega, Madison, Wisconsin) following the manufacturer’s instructions.
Briefly, Caspase-Glo® 3/7 Reagent was incubated with the cells and the caspase3/7 activity was determined by measuring luminescence with a luminometer (Berthold). Caspase3/7 activity was expressed as a percentage of the untreated control.
In silico modeling and docking. […]

COc1ccc(Br)cc1[C@H](NC(=O)NCc1ccc2c(c1)CCCN2)C(=O)N1CCC[C@@H]1c1cccc2ccsc12 [Compound C105SR, 1-((S)-2-((R)-2-(benzo[b]thiophen-7-yl)pyrrolidin-1-yl)-1-(5-bromo-2-methoxyphenyl)-2-oxoethyl)-3-((1,2,3,4-tetrahydroquinolin-6-yl)methyl)urea]
hepatocyte necrosis (histology): significantly protected
serum ALT and AST levels: significantly protected
number of TUNEL-positive apoptotic cells (vs vehicle): significantly reduced

Reference: paper PMC10582583, “The novel cyclophilin inhibitor C105SR reduces hepatic ischaemia–reperfusion injury via mitoprotection” (JHEP Reports, 2023)
